Test results as given in patent publication US20100286173A1 (priority 2008, published 2010).

Test: Measurement of logP values by HPLC on reversed phase columns (EEC directive 79/831 Annex V.A8)
Assay type: physicochemical
Conditions: pH 2.7, 0.1% formic acid in water / acetonitrile gradient 10% to 95%

Compound	logp	Log p
CCCCCOC(=O)Nc1cccc(CON=C(c2ccc(C(F)(F)F)cc2F)c2nnnn2C)n1 (single isomer, unassigned) [Example 23]	4.78	–
CCCCCOC(=O)Nc1cccc(CON=C(c2ccc(C(F)(F)F)cc2F)c2nnnn2C)n1 (single isomer, unassigned) [Example 24]	4.73	–
CC(C)C(=O)Nc1cccc(CON=C(c2ccc(C(F)(F)F)cc2F)c2nnnn2C)n1 (single isomer, unassigned) [Example 28]	3.48	–
CCCCCOC(=O)Nc1cccc(CON=C(c2ccc(OC(F)(F)F)cc2C)c2nnnn2C)n1 (single isomer, unassigned) [Example 96]	4.89	–
CCCCCOC(=O)Nc1cccc(CON=C(c2ccc(OC(F)(F)F)cc2C)c2nnnn2C)n1 (single isomer, unassigned) [Example 97]	5.11	–
CCCCCC(=O)Nc1cccc(CON=C(c2ccc(C)c(F)c2)c2nnnn2C)n1 (single isomer, unassigned) [Example 102]	4.21	–
CCCCCC(=O)Nc1cccc(CON=C(c2ccc(OC(F)(F)F)cc2C)c2nnnn2C)n1 (single isomer, unassigned) [Example 108]	4.39	–
CCCCCOC(=O)Nc1cccc(CON=C(c2cc(C(F)(F)F)ccc2C)c2nnnn2C)n1 (single isomer, unassigned) [Example 110]	4.84	–
CCCCCC(=O)Nc1cccc(CON=C(c2ccc(C)cc2Cl)c2nnnn2C)n1 (single isomer, unassigned) [Example 113]	4.16	–
CCCCCC(=O)Nc1cccc(CON=C(c2ccc(C)c(F)c2)c2nnnn2C)n1 (single isomer, unassigned) [Example 114]	4.16	–
CCCCCC(=O)Nc1cccc(CON=C(c2cc(C)ccc2Cl)c2nnnn2C)n1 (single isomer, unassigned) [Example 117]	4.19	–
Cn1nnnc1C(=NOCc1cccc(N)n1)c1ccc(C(F)(F)F)cc1F (single isomer, unassigned) [Example 141]	–	1.82
Cn1nnnc1C(=NOCc1cccc(N)n1)c1ccc(C(F)(F)F)cc1F (single isomer, unassigned) [Example 142]	–	1.72
Cn1nnnc1C(=NOCc1cccc(N)n1)c1cccc(C(F)(F)F)c1F (single isomer, unassigned) [Example 144]	–	1.65
Cc1cc(F)cc(C(=NOCc2cccc(NC(=O)CC(C)C)n2)c2nnnn2C)c1 (single isomer, unassigned) [Example 157]	–	3.71
Cc1cc(F)cc(C(=NOCc2cccc(NC(=O)CC(C)C)n2)c2nnnn2C)c1 (single isomer, unassigned) [Example 158]	–	3.76
CCCCCC(=O)Nc1cccc(CON=C(c2ccc(C(F)(F)F)cc2F)c2nnnn2C)n1 [Example 26]	4.29	–
CCCCCC(=O)Nc1cccc(CON=C(c2cc(C)ccc2F)c2nnnn2C)n1 [Example 29]	3.83	–
Cc1ccc(C(=NOCc2cccc(NC(=O)CC(C)C)n2)c2nnnn2C)cc1F [Example 32]	3.71	–
Cc1cccc(C(=NOCc2cccc(NC(=O)CC(C)C)n2)c2nnnn2C)c1F [Example 33]	3.51	–
Cc1cc(OC(F)(F)F)ccc1C(=NOCc1cccc(NC(=O)CC(C)C)n1)c1nnnn1C [Example 34]	4.16	–
Cc1ccc(Cl)c(C(=NOCc2cccc(NC(=O)CC(C)C)n2)c2nnnn2C)c1 [Example 35]	3.73	–

Compound	logp	Log p
Cc1cc(C(=NOCc2cccc(NC(=O)CC(C)C)n2)c2nnnn2C)ccc1F [Example 37]	3.67	–
Cc1ccc(C(=NOCc2cccc(NC(=O)CC(C)C)n2)c2nnnn2C)c(F)c1 [Example 38]	3.53	–
CCCCCOC(=O)Nc1cccc(CON=C(c2cc(C)cc(C)c2)c2nnnn2C)n1 [Example 39]	4.86	–
Cc1ccc(C(=NOCc2cccc(NC(=O)CC(C)C)n2)c2nnnn2C)c(Cl)c1 [Example 40]	3.73	–
CCCCCC(=O)Nc1cccc(CON=C(c2cc(C)ccc2F)c2nnnn2C)n1 [Example 42]	3.83	–
Cc1ccc(C(=NOCc2cccc(NC(=O)CC(C)C)n2)c2nnnn2C)cc1C(F)(F)F [Example 43]	4.16	–
CCCCCOC(=O)Nc1cccc(CON=C(c2cccc(C(F)(F)F)c2C)c2nnnn2C)n1 [Example 44]	4.78	–
CCCCCC(=O)Nc1cccc(CON=C(c2cc(F)cc(C(F)(F)F)c2)c2nnnn2C)n1 [Example 45]	4.29	–
Cc1ccc(C(=NOCc2cccc(NC(=O)CC(C)C)n2)c2nnnn2C)c(Cl)c1 [Example 46]	3.73	–
Cc1ccc(F)c(C(=NOCc2cccc(NC(=O)CC(C)C)n2)c2nnnn2C)c1 [Example 48]	3.53	–
Cc1ccc(C(=NOCc2cccc(NC(=O)CC(C)C)n2)c2nnnn2C)c(Cl)c1 [Example 51]	3.53	–
CCCCCOC(=O)Nc1ccnc(CON=C(c2ccc(C)c(C(F)(F)F)c2)c2nnnn2C)n1 [Example 52]	4.62	–
C#CCCOC(=O)Nc1cccc(CON=C(c2ccc(F)c(C)c2)c2nnnn2C)n1 [Example 53]	3.55	–
C=CCCOC(=O)Nc1cccc(CON=C(c2ccc(F)c(C)c2)c2nnnn2C)n1 [Example 55]	3.92	–
C=CCOC(=O)Nc1cccc(CON=C(c2ccc(F)c(C)c2)c2nnnn2C)n1 [Example 56]	3.63	–
Cc1cc(C(=NOCc2cccc(NC(=O)CCOc3ccccc3)n2)c2nnnn2C)ccc1F [Example 57]	3.87	–
Cc1cc(C(=NOCc2cccc(NC(=O)CCC3CCCC3)n2)c2nnnn2C)ccc1F [Example 58]	4.56	–
COc1ccc(CC(=O)Nc2cccc(CON=C(c3ccc(F)c(C)c3)c3nnnn3C)n2)cc1 [Example 59]	3.68	–
COc1cccc(CC(=O)Nc2cccc(CON=C(c3ccc(F)c(C)c3)c3nnnn3C)n2)c1 [Example 60]	3.72	–
COc1ccccc1CC(=O)Nc1cccc(CON=C(c2ccc(F)c(C)c2)c2nnnn2C)n1 [Example 61]	3.9	–
Cc1ccc(Cl)c(C(=NOCc2cccc(NC(=O)CC(C)C)n2)c2nnnn2C)c1 [Example 62]	3.53	–
CC(C)CC(=O)Nc1cccc(CON=C(c2cc(C(F)(F)F)ccc2Cl)c2nnnn2C)n1 [Example 63]	3.96	–

Compound	logp	Log p
Cc1ccc(C(F)(F)F)cc1C(=NOCc1cccc(NC(=O)CC(C)C)n1)c1nnnn1C [Example 64]	3.94	–
CC(C)CC(=O)Nc1cccc(CON=C(c2cc(F)cc(C(F)(F)F)c2)c2nnnn2C)n1 [Example 65]	3.89	–
CC(C)CC(=O)Nc1cccc(CON=C(c2ccc(F)c(C(F)(F)F)c2)c2nnnn2C)n1 [Example 66]	3.94	–
Cc1ccc(C(F)(F)F)cc1C(=NOCc1cccc(NC(=O)CC(C)C)n1)c1nnnn1C [Example 67]	3.62	–
Cc1ccc(C(=NOCc2cccc(NC(=O)CC(C)C)n2)c2nnnn2C)cc1C(F)(F)F [Example 69]	4.14	–
CC(C)CC(=O)Nc1cccc(CON=C(c2ccc(Cl)c(C(F)(F)F)c2)c2nnnn2C)n1 [Example 70]	4.26	–
CC(C)CC(=O)Nc1cccc(CON=C(c2ccc(C(F)(F)F)c(Cl)c2)c2nnnn2C)n1 [Example 71]	4.29	–
Cc1c(F)cccc1C(=NOCc1cccc(NC(=O)CC(C)C)n1)c1nnnn1C [Example 73]	3.53	–
Cc1ccc(F)c(C(=NOCc2cccc(NC(=O)CC(C)C)n2)c2nnnn2C)c1 [Example 75]	3.42	–
CCCCCOC(=O)Nc1cccc(CON=C(c2ccc(C)c(C(F)(F)F)c2)c2nnnn2C)n1 [Example 78]	5.05	–
CCCCCOC(=O)Nc1cccc(CON=C(c2ccc(C(F)(F)F)c(Cl)c2)c2nnnn2C)n1 [Example 79]	5.23	–
CCCCCOC(=O)Nc1cccc(CON=C(c2ccc(C)c(C(F)(F)F)c2)c2nnnn2C)n1 [Example 81]	5.08	–
CCCCCOC(=O)Nc1cccc(CON=C(c2ccc(F)c(C(F)(F)F)c2)c2nnnn2C)n1 [Example 82]	4.86	–
CCCCCOC(=O)Nc1cccc(CON=C(c2cc(C)ccc2Cl)c2nnnn2C)n1 [Example 83]	4.54	–
CCCCCOC(=O)Nc1cccc(CON=C(c2cc(C)ccc2Cl)c2nnnn2C)n1 [Example 84]	4.73	–
CCCCCOC(=O)Nc1cccc(CON=C(c2ccc(C(F)(F)F)c(Cl)c2)c2nnnn2C)n1 [Example 86]	5.2	–
CCCCCOC(=O)Nc1cccc(CON=C(c2cccc(C(F)(F)F)c2Cl)c2nnnn2C)n1 [Example 87]	4.81	–
CCCCCOC(=O)Nc1cccc(CON=C(c2ccc(Cl)c(C(F)(F)F)c2)c2nnnn2C)n1 [Example 88]	5.14	–
CCCCCC(=O)Nc1cccc(CON=C(c2ccc(C)c(C(F)(F)F)c2)c2nnnn2C)n1 [Example 89]	4.56	–
CCCCC(=O)Nc1ccnc(CON=C(c2ccc(C)c(C(F)(F)F)c2)c2nnnn2C)n1 [Example 90]	3.94	–
CCCCCOC(=O)Nc1cccc(CON=C(c2ccc(C)cc2Cl)c2nnnn2C)n1 [Example 91]	4.7	–
CCCCCOC(=O)Nc1cccc(CON=C(c2ccc(C)cc2Cl)c2nnnn2C)n1 [Example 92]	4.54	–

Same assay, conditions: reversed phase HPLC column, pH 2.7, 0.1% formic acid in water / acetonitrile gradient 10% to 95%

Compound	chromatographic logP
CCCCOC(=O)Nc1ccnc(CON=C(c2ccc(C)c(C(F)(F)F)c2)c2nnnn2C)n1 [Example 8, butyl(2-{[({(1-methyl-1H-tetrazol-5-yl)[4-methyl-3-(trifluoromethyl)phenyl]methylidene}amino)oxy]methyl}pyrimidin-4-yl)carbamate]	4.24
CCCCCOC(=O)Nc1nc(CON=C(c2ccc(C)c(C(F)(F)F)c2)c2nnnn2C)cs1 [Example 22, pentyl(4-{[({(1-methyl-1H-tetrazol-5-yl)[4-methyl-3-(trifluoromethyl)phenyl]methylidene}amino)oxy]methyl}-1,3-thiazol-2-yl)carbamate]	4.73
CCCCCC(=O)Nc1cccc(CON=C(c2cccc(C(F)(F)F)c2F)c2nnnn2C)n1 [Example 27, N-(6-{[({[2-fluoro-3-(trifluoromethyl)phenyl](1-methyl-1H-tetrazol-5-yl)methylidene}amino)oxy]methyl}pyridin-2-yl)hexanamide]	4.16
